# Laboratory results reported in patent US20240293430A1, “WITHAFERIN A AND IMMUNE CHECKPOINT BLOCKER COMBINATION THERAPIES” (University of South Florida, priority 2023, published 2024).
# What was measured:
# [1] = tested on: apoptotic marker transcripts in NSCLC cell lines; assay: qRT-PCR of pro- and anti-apoptotic transcripts; assay type: cell-based, mouse (LLC), human (H1650, A549)
# Experimental: FIGS. 1A-lE depict that WFA induces ER stress-mediated apoptosis in NSCLC cell lines. (FIG. 1A) NSCLC cells were plated on 96-well plates and treated with different concentrations of WFA ([…]) in triplicates. Forty-eight hours post-treatment, cell viability was determined using Cell Titer-Glo assay. Luminescence values were normalized to control untreated cells and IC50 values are represented as the mean of two independent experiments ±SEM. (FIG. 1B) NSCLC cells were treated WFA for forty-eight hours, then collected to measure apoptotic cell death using Annexin V assay in LLC cells, H1650 cells, and A549 cells. Percentages of early (annexin*DAPI-) and late (annexin*DAPI+) apoptotic cells are represented as means of two separate experiments ±SEM and statistical significance was calculated using one-way ANOVA and a Fisher LSD post hoc test was used to compare the mean of each group to that of the control group. (FIGS. 1C-1D) WFA treated cells were collected in Trizol and total RNA was isolated to measure the levels of Bax (FIG. 1C) and Bcl2 (FIG. 1D) mRNA using qRT-PCR. PCR experiments were repeated at least twice, and one representative experiment is shown as mean±SEM of the technical replicates. (FIG. 1E) Western blot of ER stress markers p-eIF-2 and CHOP was performed using total lysates of WFA-treated LLC cells. The quantification of western blot band density was performed using Image J software v.1.54d and normalized to housekeeping control protein in LLC cells (0-actin). […] Data were obtained from two independent experiments.
# FIGS. 7A-7I depict qRT-PCR analysis of the change in expression of pro-apoptotic and anti-apoptotic induced by WFA treatment. WFA increased the mRNA levels of proapoptotic protein Bak-1 in (FIG. 7A) LLC cells and BAD in (FIG. 7C) H1650 cells. […] PCR was repeated twice, and one representative experiment is shown as mean±SEM of 3 technical replicates. […] (FIGS. 7G-7I) Western blots.
# Total cellular RNA was isolated from collected cell pellets using TRIzol reagent (Invitrogen, Waltham, MA, USA) and then quantified using the 2000 Nanodrop spectrophotometer (Thermo Fisher Scientific, Waltham, MA, USA). cDNA synthesis was performed using the Verso cDNA synthesis kit (Thermo Fisher Scientific, Waltham, MA, USA). qPCR was then performed using Forget-Me-Not EvaGreen qPCR Master Mix (Biotium, Fremont, CA, USA) in a Bio-Rad CFX384 thermocycler according to the manufacturer's instructions. The CFX Maestro software version 2.3 (Bio-Rad, Hercules, CA, USA) was used to calculate the ΔCt and ΔΔCt values and gene expression was normalized to housekeeping genes glyceraldehyde 3-phosphate dehydrogenase (GAPDH) or β-actin. The sequences of PCR primers used are listed in Table 2 (Integrated DNA Technologies, Inc, Coralville, IA, USA).
# [2] = tested on: tumor-immune infiltration and ecto-CRT in LLC tumors; assay: LLC syngeneic mouse model, flow cytometry of collected tumors; assay type: in vivo, C57BL/6 mice
# Experimental: FIGS. 5A-5G depict that WFA sensitizes flank tumors to α-PD-L1 therapy and targets immunosuppressive MDSCs and T-regs. (FIG. 5A) Establishment of LLC flank tumors and treatment schedule. (FIG. 5B) Tumor volume measurement in mm^3 and tumor weight at the endpoint of the experiment. (FIG. 5C) Change in the levels of ecto-CRT in tumors was measured using flow cytometry. (FIGS. 5D-5G) Flow cytometry was used to determine the change in immune cell infiltration in collected tumors. […] Moreover, WFA reduced the immunosuppressive T regs (FIG. 5F) and CD11b+Gr1+MDSC (FIG. 5G) populations. The means of two independent experiments ±SEM are shown, and the statistical significance was calculated using one-way ANOVA and a Fisher LSD post hoc test where * and #represent p<0.05 and ** and ##represent p<0.01. * Symbols refer to the difference between the vehicle control and WFA, while #refers to comparisons between the vehicle control and WFA+α-PD-L1 combination.
# FIGS. 12A-12D depicts the gating strategy used to determine tumor immune infiltration in LLC tumors and spleens. […] Out of the CD11b population, we gated the monocytic CD11b+Ly6C+ and CD11b+Ly6G+granulocytic MDSCs. (FIG. 12B) For the T-cell panel, the total CD-3 population was gated out of the live single cells. Consequently, CD4, CD25+CD4+Tregs and CD8 population were gated out of CD-3 cells based on the FMO controls. (FIGS. 12C-12D) Mice body weights were measured at the endpoint of the experiment and represented as mean±SEM. The means were compared to the vehicle control using Fisher LSD post-hoc test. * p<0.05.
# In vitro WFA-treated or control cells were collected using Accutase cell detachment solution and stained with FACS-diluted (PBS, 10% FBS, 2 mMEDTA) pre-titrated fluorophore conjugated or primary unconjugated antibody solutions (Table 1) for 30 min on ice in the dark. In case of fluorophore-conjugated antibodies, samples are washed and immediately acquired after adding DAPI viability dye, while samples stained with unconjugated antibodies are incubated with the proper secondary fluorophore-conjugated antibody for 30 min before washing and acquisition. For in vivo experiments, the processed tumor or spleen single cell suspensions were used for surface staining with the pre-titrated antibodies (Table 1) for 30 min on ice in the dark. To exclude the dead cells from the analysis, a fixable live/dead Zombie Aqua viability kit (Biolegend, San Diego, CA, USA) was used according to the manufacturer's protocol. Samples were then fixed using 2% PFA for 15 min then washed and stored at 4° C. before acquisition. Samples were acquired using a Becton Dickenson Biosciences (BD, Franklin Lakes, NJ, USA) FACS Canto II or LSR II system at the University of South Florida COM Fred Wright Jr Flow Cytometry Core.
# C57BL/6 mice were purchased from the Jackson Laboratory (Bar Harbor, ME, USA) and acclimated for a week. To establish the LLC syngeneic tumors, C57BL/6 mice were injected with a half million cells on the right flank and monitored until tumors were first palpable (2-3 mm diameter). […] Treatments were administered every other day with a total of five treatments and mice body weights and tumor volumes were monitored using a caliper (Fisher Scientific, Waltham, MA, USA, 15-077-957). Tumor volumes (mm^3) were calculated using the equation ([…]), where the length is defined as the bigger tumor dimension. […]
compound,measurement,setting,value
"CC1=C(CO)C(=O)O[C@@H]([C@@H](C)[C@H]2CC[C@H]3[C@@H]4C[C@H]5O[C@]56[C@@H](O)C=CC(=O)[C@]6(C)[C@H]4CC[C@]23C)C1 [WFA, Withaferin A]",Bax transcripts,[1],increased
same,Bcl-2 transcripts,[1],reduced
same,BAD transcripts,[1]; H1650 cells,increased
same,Survivin transcripts,[1]; LLC and A549,reduced
same,Xiap transcripts,[1]; LLC and A549,reduced
same,Bak-1 transcripts,[1]; LLC cells,increased
same,CD11b+Gr1+ MDSCs in the tumor,[2],reducing
same,CD25+CD4+ T-regs in the tumor,[2],reducing
same,levels of ecto-CRT in vivo,[2]; vs control mice,increased
same,CD8 T-cell infiltration,[2]; vs vehicle control,increasing
same,T-cell activation markers CD69 and 41BB,[2]; vs vehicle control,not significant
